Results taken from US10125183B2, “Decoy peptides inhibiting binding of AMIGO2 and 3-phosphoinositide-dependent kinase 1” (Curacle Co., Ltd., priority 2015, dated 2018).

Assays:
PDK1 PH domain = target: T1, PDK1 PH domain (Homo sapiens, UniProt O15530); experiment: Decoy peptide binding assay (FITC-PTD-A2 with His-tagged PH domain proteins); conditions: FITC-PTD-A2, PH domain proteins 0-60 μg, fluorescence
T1 construct: the purified His-tagged PH domain proteins were incubated with Ni^2+-NTA resins; made in house; host or cells: Escherichia coli BL21
T1 sequence (O15530 459-550 limits assumed): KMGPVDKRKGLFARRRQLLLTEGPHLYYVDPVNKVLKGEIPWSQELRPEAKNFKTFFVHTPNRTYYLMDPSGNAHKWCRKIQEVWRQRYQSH
Experimental: (§1) For the peptide binding assay, the purified His-tagged PH domain proteins were incubated with Ni^2+-NTA resins for 1 h, incubated in vitro with the FITC-PTD-A2 or Con-pep for 1 h, washed five times, eluted with elution buffer. The FITC level of eluted material was then measured using FLUOstar Omega (BGMLABTECH). For the peptide competition assay, the purified His tagged PH domain proteins were incubated with Ni^2+-NTA resins for 1 h, incubated in vitro with the Cytoplasm Domain protein of AMIGO2 proteins with FITC-PTD-A2 or Con-pep for 1 h, washed five times, eluted with elution buffer, and the fluorescence was measured. The FITC level of eluted material was then measured using FLUOstar Omega.

C57BL/6J mice = experiment: Mouse model of oxygen-induced retinopathy (OIR); assay type: in vivo; conditions: injected every day for five days from P12
Experimental: OIR was induced in C57BL/6J mice as previously described (Connor et al., 2009). Briefly, litters of postnatal day seven (P7) C57BL/6J pups were placed in a 75% oxygen atmosphere for five days and then returned to room air at age P12. After returning to room air, the pups were injected with PBS, Con-pep and PTD-A2 every day for five days. Following the injections, crumps of non-vascular regions, vascular regions and blood vessels were detected with CD31 staining.

[1] = target: T2, interaction of the CD of AMIGO2 and PH domain of PDK1 (Homo sapiens, UniProt O15530); experiment: Peptide competition assay (GST-AMIGO2 CD versus peptide on His-tagged PDK1 PH); assay type: binding; conditions: His-tagged PDK1 PH with GST-AMIGO2 CD and peptide, dose dependent
T2 construct: the purified His tagged PH domain proteins were incubated with Ni^2+-NTA resins; made in house; host or cells: Escherichia coli BL21
T2 sequence (O15530 459-550 limits assumed): T1 sequence (O15530 459-550 limits assumed)
Experimental: as §1

PDK1 = PDK1 localization in HUVECs after VEGF treatment (immunofluorescence); assay type: cell-based, human; conditions: PTD-A2-treated HUVECs
Experimental: HUVECs were fixed in 3.7% formaldehyde for 10 min and permeabilized with 0.1% Triton X-100 on the ice. Cells were labeled with anti-FAK antibody (Santa Cruz Biotechnology), anti-PDK1 antibody (Cell Signaling Technology), anti-Akt antibody (Cell Signaling Technology), and anti-AMIGO2 antibody (Abcam) for 2 h at room temperature or overnight at 4° C. Afterwards, the cells were incubated with Alexa 488 and Alexa 546 secondary antibodies (Invitrogen) for 60 min at room temperature, and were then examined under a confocal microscope (LSM 700 META; Carl Zeiss).
(§2) The PTD-A2 of FITC-linker-YGRKKRRQRRR-GKRVVFLEPLKDTA (SEQ ID NO: 37) (decoy peptide) and the control peptide (FITC-linker-YGRKKRRQRRR-GRVKTDFLAVPEKL (SEQ ID NO: 38)) (Con-pep) were obtained from Peptron. The experiment was performed using 5 μM concentration in vitro, 4 mg/kg was used for an animal experiment. Peptide treated HUVECs were incubated with serum-free M199 medium at 37° C.

[2] = target: T3, association between AMIGO2 and PDK1 (Homo sapiens, UniProt O15530); experiment: Immunoprecipitation of AMIGO2 and blotting for PDK1 in peptide-treated HUVECs; assay type: cell-based
T3 construct: endogenous in cells; host or cells: endothelial cells (HUVECs)
T3 sequence (O15530 1-556): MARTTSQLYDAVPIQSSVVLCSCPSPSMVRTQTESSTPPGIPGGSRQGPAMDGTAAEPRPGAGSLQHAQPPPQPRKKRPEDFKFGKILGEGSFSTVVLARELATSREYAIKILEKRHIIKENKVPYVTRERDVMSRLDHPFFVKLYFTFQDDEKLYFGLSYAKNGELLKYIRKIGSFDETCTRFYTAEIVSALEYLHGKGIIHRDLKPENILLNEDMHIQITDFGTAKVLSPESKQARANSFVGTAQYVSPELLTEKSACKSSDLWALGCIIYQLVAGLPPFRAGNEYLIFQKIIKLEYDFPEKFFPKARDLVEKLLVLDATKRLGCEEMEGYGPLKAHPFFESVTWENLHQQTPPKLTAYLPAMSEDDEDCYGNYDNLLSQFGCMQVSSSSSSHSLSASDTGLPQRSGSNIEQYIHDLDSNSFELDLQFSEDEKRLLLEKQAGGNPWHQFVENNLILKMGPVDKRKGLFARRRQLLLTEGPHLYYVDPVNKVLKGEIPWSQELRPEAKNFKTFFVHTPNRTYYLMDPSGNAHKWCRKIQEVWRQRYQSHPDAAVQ
Experimental: For co-immunoprecipitation, HEK293T cells were lysed in 1 mL lysis buffer (20 mmol/L Tris/HCl pH 8.0, 2 mmol/L EDTA, 137 mmol/L NaCl, 1 mmol/L NaVO4, 1 mmol/L PMSF, 10% glycerol, and 1% Triton X-100), and were centrifuged at 14,000×g for 15 min at 4° C., and then the supernatants were immunoprecipitated with antibodies against FLAG (Sigma-Aldrich) and GFP (Santa Cruz Biotechnology) at 4° C. overnight. The immunoprecipitated proteins were obtained by using protein A-agarose beads (Upstate Biotechnology), and detected by SDS-PAGE.
as §2

HUVECs [3] = experiment: HUVEC cell viability with or without VEGF; assay type: cell-based, human; conditions: serum-free starvation with or without VEGF
Experimental: Endothelial progenitor cells (EPC) were isolated from human umbilical cord blood as previously described (Maeng et al., 2009). Briefly, human umbilical cord blood samples (approximately 50 mL each) were collected from fresh placentas with attached umbilical cords by gravity flow. Human umbilical vein endothelial cells (HUVECs) were isolated from human umbilical cord veins using collagenase as described previously (Marin et al., 2001), and cells from passages three to six were used. HUVECs were cultured on 2% gelatin-coated dishes at 37° C. in a 5% CO2-humidified atmosphere using M199 medium (HyClone) containing 20% fetal bovine serum (FBS), 100 U/mL penicillin, 100 μg/mL streptomycin, 3 ng/mL bFGF (Upstate Biotechnology), and 5 U/mL heparin.
as §2

B16F10 melanoma tumors = experiment: B16F10 melanoma tumor model; assay type: in vivo, mouse; conditions: 4 mg/kg every other day
Experimental: B16F10 melanoma cells (2.5×10^5 cells in 100 μl) were subcutaneously injected into the dorsal flank of 6-7 week-old mice and then PTD-Con or PTD-A2 peptide (4 mg/kg every other day) was administered by intratumoral injection after the tumor volume exceeded 100 mm^3. The size was evaluated every day, tumor samples were frozen sectioned, and stained with anti-CD31 antibody to detect the tumor vascular changes, and then examined the apoptosis bio TUNEL staining. For the TUNEL assay, an in situ cell death detection kit (Roche) was used, and sections were analyzed using a confocal microscope (LSM 700 META; Carl Zeiss).

Akt and PDK1 = experiment: VEGF-induced Akt signaling in HUVECs; assay type: cell-based, human; conditions: PTD-A2-treated HUVECs
Experimental: as §2

HUVECs [4] = experiment: Matrigel-induced tube formation assay; assay type: cell-based, human; conditions: PTD-A2 treated ECs
Experimental: The tube formation was assayed as previously described (Choi et al., 2009). Briefly, 250 μL of Matrigel™ (BD Biosciences) was added to a 16-mm diameter tissue culture well on the ice. HUVEC cells then ware placed on that and tube formation was confirmed. The images of the tubes were quantified using ImageJ software (National Institutes of Health).

C57BL/6 mice = experiment: Matrigel plug angiogenesis assay; assay type: in vivo, mouse; conditions: 25 μM peptide with VEGF 200 ng, subcutaneous, five days
Experimental: Angiogenesis was evaluated as previously described (Choi et al., 2009). PBS; Matrigel™ (500 μL; BD Biosciences) mixed with PTD-A2 (25 μM), VEGF (200 ng) and heparin (10 U); and Con-pep (25 μM), VEGF (200 ng) and heparin (10 u) were each subcutaneously injected to Five- to six-week-old C57BL/6 mice. Following injection, the Matrigel™ rapidly formed a single, solid gel plug. After five days, the skin of the mouse was pulled back to expose the Matrigel™ plug, which remained intact. To quantify blood vessel formation, hemoglobin was measured using the Drabkin method and the Drabkin reagent kit 525 (Sigma-Aldrich), and immunohistochemistry was performed using anti-CD31 antibody (BD Biosciences) to identify infiltrating ECs.

In the case of “FITC-linker-YGRKKRRQRRR-GKRVVFLEPLKDTA (SEQ ID NO: 37) [PTD-A2]”, the “binding to the PDK1 PH domain” value (PDK1 PH domain) is reported as “bound”, the “avascular areas of retinas” value (C57BL/6J mice) is reported as “increased” and the retinal hemorrhage (C57BL/6J mice) is reported as “significantly reduced”. For the same substance, the retinal vascular areas (C57BL/6J mice) was “significantly reduced”, the tuft formation (C57BL/6J mice) was “significantly reduced” and the “interaction of the CD of AMIGO2 and PH domain of PDK1” value [1] was “inhibited”. The “PDK1 localization to the plasma membrane following VEGF treatment” value (PDK1) was “unable to move to the plasma membrane”, the “association between AMIGO2 and PDK1 in endothelial cells” value [2] was “inhibited” and the “cell viability of PTD-A2-treated HUVECs” value (HUVECs [3]) was “dose and time-dependent inhibitory effect”. For the same substance, the “apoptotic regions of tumors (TUNEL assay)” value (B16F10 melanoma tumors; compared to PBS or Con-pep groups) was “increased”, the tumor formation (B16F10 melanoma tumors; intratumoral injection) was “decreased” and the tumor angiogenesis (B16F10 melanoma tumors; intratumoral, CD31 staining) was “decreased”. For the same substance, the “activity of both Akt and PDK1” value (Akt and PDK1) was “reduced”, the Matrigel-induced tube formation (HUVECs [4]) was “inhibited” and the “hemoglobin contents of Matrigel plugs” value (C57BL/6 mice) was “lower”. The “neovascularization in Matrigel plugs” value (C57BL/6 mice) was “dramatic inhibition”.
